Assay results as given in ChEMBL document CHEMBL1201862, “PubChem BioAssay data set” (2004).
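In this assay, cells in 96-well plates receive the compound at five concentrations for 48 hours. Endpoints are linearly interpolated between the surrounding concentrations. GI50 = concentration required for 50% inhibition of growth.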 Activity calls are given as the source filed them. Rule as the data show it: active = GI50 up to about 1.1 µM and inactive = higher.

Legend:
Assay in all cases: DTP human tumour cell line panel, 48 h
786-0 = system: 786-0
A498 = system: A498
COLO 205 = system: COLO 205
DU-145 = system: DU-145
HCC 2998 = system: HCC 2998
HCT-116 = system: HCT-116
HL-60 = system: HL-60
Hs-578T = system: Hs-578T
M14 = system: M14
MDA-N = system: MDA-N
NCI-H226 = system: NCI-H226
NCI/ADR-RES = system: NCI/ADR-RES
OVCAR-5 = system: OVCAR-5
RXF 393 = system: RXF 393
SK-MEL-2 = system: SK-MEL-2
SNB-75 = system: SNB-75
SW-620 = system: SW-620
TK-10 = system: TK-10
UO-31 = system: UO-31
UACC-257 = system: UACC-257

SMILES | GI50 (786-0) | GI50 (A498) | GI50 (COLO 205) | GI50 (DU-145) | GI50 (HCC 2998) | GI50 (HCT-116) | GI50 (HL-60) | GI50 (Hs-578T) | GI50 (M14) | GI50 (MDA-N) | GI50 (NCI-H226) | GI50 (NCI/ADR-RES) | GI50 (OVCAR-5) | GI50 (RXF 393) | GI50 (SK-MEL-2) | GI50 (SNB-75) | GI50 (SW-620) | GI50 (TK-10) | GI50 (UO-31) | GI50 (UACC-257)
O=c1[nH]c(=O)n([C@@H]2O[C@H](CO)[C@@H](O)[C@H]2O)cc1F [5-FLUOROURIDINE] | 0.0408 µM (active) | 0.308 µM (active) | 0.0787 µM (active) | 0.151 µM (active) | 0.0311 µM (active) | 0.0167 µM (active) | 0.0867 µM (active) | 2.01 µM (inactive) | 0.222 µM (active) | 0.025 µM (active) | 0.154 µM (active) | 0.0792 µM (active) | 0.718 µM (active) | 0.221 µM (active) | 2.32 µM (inactive) | 2.25 µM (inactive) | 0.0222 µM (active) | 5.74 µM (inactive) | 0.0792 µM (active) | –
CC(C)(C)C1(COC(=O)c2ccc(N)cc2)COC1 | 73.3 µM (inactive) | 87.3 µM (inactive) | > 100 µM (inactive) | > 100 µM (inactive) | 57.5 µM (inactive) | 51.9 µM (inactive) | 26.3 µM (inactive) | > 100 µM (inactive) | 61 µM (inactive) | 66.1 µM (inactive) | > 100 µM (inactive) | 58.3 µM (inactive) | > 100 µM (inactive) | 72.4 µM (inactive) | > 100 µM (inactive) | 76.6 µM (inactive) | > 100 µM (inactive) | > 100 µM (inactive) | 56 µM (inactive) | 43.5 µM (inactive)
COc1cc(C2S/C(=C/c3ccccc3)C(=O)N2c2ccc(Cl)cc2)cc(OC)c1OC (configuration not stated) | > 100 µM (inactive) | 53.8 µM (inactive) | 0.617 µM (active) | 54.2 µM (inactive) | 36.6 µM (inactive) | 3.65 µM (inactive) | 23.2 µM (inactive) | 32.3 µM (inactive) | 2 µM (inactive) | 1.58 µM (inactive) | > 89.1 µM (inactive) | 16.9 µM (inactive) | > 100 µM (inactive) | 40.6 µM (inactive) | 7.98 µM (inactive) | 16.4 µM (inactive) | 12.9 µM (inactive) | > 100 µM (inactive) | – | 34.2 µM (inactive)
CCC(C)(C)/C(CC(O)(C(F)(F)F)C(F)(F)F)=N\O | > 100 µM (inactive) | > 100 µM (inactive) | > 100 µM (inactive) | > 100 µM (inactive) | > 100 µM (inactive) | > 100 µM (inactive) | > 100 µM (inactive) | > 100 µM (inactive) | > 100 µM (inactive) | > 100 µM (inactive) | > 100 µM (inactive) | > 100 µM (inactive) | > 100 µM (inactive) | > 100 µM (inactive) | > 100 µM (inactive) | > 100 µM (inactive) | > 100 µM (inactive) | > 100 µM (inactive) | > 100 µM (inactive) | –
CC1(C)Cc2c(c3ccccc3c3nc4c(nc23)c2c(c3ccccc34)OC(C)(C)C2)O1 | > 100 µM (inactive) | > 100 µM (inactive) | > 100 µM (inactive) | > 100 µM (inactive) | > 100 µM (inactive) | > 100 µM (inactive) | > 100 µM (inactive) | 39.4 µM (inactive) | > 100 µM (inactive) | > 100 µM (inactive) | – | > 100 µM (inactive) | > 100 µM (inactive) | > 100 µM (inactive) | > 100 µM (inactive) | – | > 100 µM (inactive) | > 100 µM (inactive) | – | > 100 µM (inactive)
CCCn1c(C23CC4CC(CC(C4)C2)C3)nc2ccc(Cl)cc2c1=O | 34.2 µM (inactive) | 17.9 µM (inactive) | 37.2 µM (inactive) | 27.9 µM (inactive) | – | 30.1 µM (inactive) | 21.6 µM (inactive) | 63.2 µM (inactive) | 26.1 µM (inactive) | 33 µM (inactive) | > 100 µM (inactive) | 21.9 µM (inactive) | 74.8 µM (inactive) | 7.11 µM (inactive) | 47.1 µM (inactive) | – | > 100 µM (inactive) | 48.2 µM (inactive) | 15.6 µM (inactive) | 33.2 µM (inactive)
N#CC(C#N)=C1C(=Cc2ccc(OCCCCCCCCCCSSCCCCCCCCCCOc3ccc(C=C4C(=C(C#N)C#N)c5ccccc5C4=C(C#N)C#N)cc3)cc2)C(=C(C#N)C#N)c2ccccc21 | 21.8 µM (inactive) | 18.7 µM (inactive) | – | 22 µM (inactive) | 14.7 µM (inactive) | 17.1 µM (inactive) | 0.0465 µM (active) | 20.4 µM (inactive) | 20.3 µM (inactive) | 34.8 µM (inactive) | 24 µM (inactive) | 19.3 µM (inactive) | 20.8 µM (inactive) | 22.6 µM (inactive) | 25.8 µM (inactive) | 25.7 µM (inactive) | 23.3 µM (inactive) | 47.4 µM (inactive) | 18.2 µM (inactive) | 39.5 µM (inactive)
CC(=O)[C@]12OC(=O)C3=C1[C@H](CC[C@@H]3C)[C@@H](C)C[C@H]2C=C(C)C | 8.55 µM (inactive) | 7.96 µM (inactive) | 8.79 µM (inactive) | 8.09 µM (inactive) | – | 6.55 µM (inactive) | 7.71 µM (inactive) | 8.18 µM (inactive) | 8.39 µM (inactive) | 7.59 µM (inactive) | 8.28 µM (inactive) | 9.12 µM (inactive) | 8.11 µM (inactive) | – | 7.82 µM (inactive) | – | 7.55 µM (inactive) | – | 8.22 µM (inactive) | 9.75 µM (inactive)
COc1ccccc1Cn1c2c(c3c(C(=O)NCCN(C)C)c(O)ccc31)C(=O)c1ccccc1C2=O | 0.409 µM (active) | 5.26 µM (inactive) | 1.94 µM (inactive) | 1.81 µM (inactive) | 1.66 µM (inactive) | 0.759 µM (active) | 1.01 µM (active) | 1.9 µM (inactive) | 1.32 µM (inactive) | 1.4 µM (inactive) | 10.4 µM (inactive) | 2.02 µM (inactive) | 1.94 µM (inactive) | 1.07 µM (active) | 1.69 µM (inactive) | 1.55 µM (inactive) | – | 1.61 µM (inactive) | 1.75 µM (inactive) | 1.79 µM (inactive)
CNc1cccc(-c2cc(O)c3cc4c(cc3n2)OCO4)c1 | 0.334 µM (active) | 0.307 µM (active) | 0.167 µM (active) | 0.303 µM (active) | 0.322 µM (active) | 0.236 µM (active) | 0.198 µM (active) | 0.269 µM (active) | 0.224 µM (active) | 0.0296 µM (active) | 0.404 µM (active) | 0.199 µM (active) | 1.79 µM (inactive) | 0.213 µM (active) | 0.385 µM (active) | 1.8 µM (inactive) | 0.283 µM (active) | 1.42 µM (inactive) | 0.509 µM (active) | –
Cc1nc(C)c(N2CCN(Cc3ccccc3)CC2)c(O)n1 | > 100 µM (inactive) | > 100 µM (inactive) | > 100 µM (inactive) | > 100 µM (inactive) | > 100 µM (inactive) | > 100 µM (inactive) | > 100 µM (inactive) | > 100 µM (inactive) | > 100 µM (inactive) | > 100 µM (inactive) | > 100 µM (inactive) | > 100 µM (inactive) | – | > 100 µM (inactive) | – | – | > 100 µM (inactive) | > 100 µM (inactive) | > 100 µM (inactive) | > 100 µM (inactive)
CC(C)=CCc1c(OC(=O)c2c(C)cc(O)cc2O)cc(CO)c(CO)c1O | 31.4 µM (inactive) | 17.3 µM (inactive) | 17.9 µM (inactive) | 25.1 µM (inactive) | 16.4 µM (inactive) | 20.9 µM (inactive) | 4.5 µM (inactive) | 20.1 µM (inactive) | 20.8 µM (inactive) | 19.1 µM (inactive) | 34 µM (inactive) | 30.1 µM (inactive) | 20.4 µM (inactive) | – | 21.3 µM (inactive) | 12.6 µM (inactive) | > 10 µM (inactive) | 26.3 µM (inactive) | 12.2 µM (inactive) | 29.9 µM (inactive)
Cc1nc2c(O)cc3c4c(n(Cc5ccccc5)c3c2nc1C)C(=O)CCC4 | 15.1 µM (inactive) | 34 µM (inactive) | 83 µM (inactive) | 7.13 µM (inactive) | > 100 µM (inactive) | 34.4 µM (inactive) | > 100 µM (inactive) | 14.4 µM (inactive) | 53.2 µM (inactive) | 45.9 µM (inactive) | > 100 µM (inactive) | 32.1 µM (inactive) | > 100 µM (inactive) | 5.46 µM (inactive) | 10.1 µM (inactive) | – | > 100 µM (inactive) | 34 µM (inactive) | 56 µM (inactive) | > 100 µM (inactive)
Cc1cc(N(CCC#N)CCC#N)ccc1/C=N/NC(=O)c1cc(Cl)ccc1O | > 100 µM (inactive) | > 100 µM (inactive) | > 100 µM (inactive) | > 100 µM (inactive) | > 100 µM (inactive) | > 100 µM (inactive) | 69.2 µM (inactive) | 59.7 µM (inactive) | > 100 µM (inactive) | > 100 µM (inactive) | > 100 µM (inactive) | > 100 µM (inactive) | > 100 µM (inactive) | > 100 µM (inactive) | > 100 µM (inactive) | 34.1 µM (inactive) | – | > 100 µM (inactive) | – | > 100 µM (inactive)
CC1=C(C#N)C(=O)N(/N=C/c2ccc(Cl)cc2)C(=O)/C1=c1\o/c(=C2/C(=O)N(/N=C/c3ccc(Cl)cc3)C(=O)C(C#N)=C2C)c2nccnc12 | > 100 µM (inactive) | > 100 µM (inactive) | > 100 µM (inactive) | > 100 µM (inactive) | 42.2 µM (inactive) | 76.7 µM (inactive) | 84.5 µM (inactive) | 21.2 µM (inactive) | > 100 µM (inactive) | 77.3 µM (inactive) | 78.2 µM (inactive) | > 100 µM (inactive) | > 100 µM (inactive) | 19.5 µM (inactive) | > 100 µM (inactive) | 15.3 µM (inactive) | > 100 µM (inactive) | – | 85.7 µM (inactive) | > 100 µM (inactive)
